This is an account of results in patent publication US8080529B2, “Macrolides with anti-inflammatory activity” (Glaxo Group Limited, priority 2005, dated 2011).

Read-outs that look alike come from different tables or passages of the source.

A word on the inhibition: it is the share of the control response that was lost under treatment.

What all share (type): cell-based
In one assay the test system is TNF-α. Briefly: Inhibition of TNF-α production by stimulated human peripheral blood leukocytes in vitro. The settings on record: for inhibition at 10 µM / inhibition at 50 µM: Homo sapiens, Leukocyte, read-out: Percentage of inhibition of TNF-α production. How it is done:
(§1) Test substances used in in vitro experiments were dissolved in dimethyl sulfoxide (DMSO) (Kemika, Croatia) at concentrations of 50 mM and 10 mM, and were further diluted to final concentrations of 50 μM and 10 μM in 1 mL Dulbecco's modified Eagle medium (DMEM) supplemented with 1% heat inactivated fetal bovine serum (FBS), 1% L-glutamine, 50 U/ml penicillin, 50 μg/ml streptomycin and 2.5 μg/mL Fungizone (amphotericin B). Media and all media supplements were purchased from Gibco, Australia, except the FBS was purchased from Sigma, USA.
(§2) Peripheral blood leukocytes (PBL) were obtained from venous blood of healthy volunteers by sedimentation on 2% dextran T-500 (Amersham Biosciences, USA) and subsequent centrifugations of leukocyte rich plasma.
(§3) Peripheral blood leukocytes (PBL), isolated as described above, were seeded in a 48-well plate at a concentration of 3 to 5×10^6 cell per well in culture medium consisting of RPMI 1640 medium (Institute of Immunology, Croatia) supplemented with 10% heat-inactivated fetal calf serum (FCS, Biowhittaker, USA), 100 U/ml penicillin (Gibco, Australia), 100 μg/ml streptomycin (Gibco, Australia) and 2 mM L-glutamine (Gibco, Australia), and preincubated with the test compounds for 2 h at 37° C., in an atmosphere of 5% CO2, and 90% humidity. Then, stimuli (Sigma, USA) were added to a final concentration of 2 μg/mL lipopolysaccharide (LPS), 1 μg/mL phorbol 12-myristate 13-acetate (PMA) or 120 μg/mL zymosan. Samples were incubated overnight under conditions described above. At the end of incubation, the supernatants were transferred to eppendorf tubes and centrifuged for 10 min at 1500×g. Concentrations of human TNF-α, IL-1β, IL-6 and IL-8 were determined in cell supernatants by sandwich ELISA, using capture and detection antibodies (R&D Systems, Minneapolis, Minn.) according to the manufacturer's recommendations.
(§4) Inhibition (as percentage) was calculated using the following formula: % inhibition=(1−concentration of cytokines in sample/concentration of cytokines in positive control)×100.
(§5) The positive control refers to LPS-, PMA- or zymosan-stimulated samples that were not preincubated with test compounds.

A further assay relates to IL-1α. Briefly: Inhibition of IL-1 production by stimulated human peripheral blood leukocytes in vitro. As to conditions: for inhibition at 10 µM / inhibition at 50 µM: Homo sapiens, Leukocyte, read-out: Percentage of inhibition of IL-1α production.
Another assay concerns IL-6. Briefly: Inhibition of IL-6 production by stimulated human peripheral blood leukocytes in vitro. The settings on record: for inhibition at 10 µM / inhibition at 50 µM: Homo sapiens, Leukocyte, read-out: Percentage of inhibition of IL-6 production. How it is done: as §1, §2, §3, §4, §5
Another assay deals with IL-8. Kind of assay: Inhibition of IL-8 production by stimulated human peripheral blood leukocytes in vitro. As to conditions: for inhibition at 10 µM / inhibition at 50 µM: Homo sapiens, Leukocyte, read-out: Percentage of inhibition of IL-8 production. As for the experimental part: as §1, §2, §3, §4, §5

Turning to `CC[C@H]1OC(=O)[C@H](C)[C@@H](O[C@H]2C[C@@](C)(OC)C(OC(=O)CCN(CC)CC)[C@H](C)O2)[C@H](C)[C@@H](O[C@@H]2O[C@H](C)C[C@H](NC)[C@H]2O)[C@](C)(O)C[C@@H](C)CN(C)[C@H](C)[C@@H](O)[C@]1(C)O` (stereo partly drawn) [Example 90, 3′-N-Demethyl-4″-O-(3-diethylaminopropionyl)-azithromycin], the inhibition at 10 µM with TNF-α (10 μM, LPS-stimulated PBL) was found to be 78%; with TNF-α (10 μM, PMA-stimulated PBL) it was 40%; in the assay with TNF-α (10 μM, zymosan-stimulated PBL), 53%; in the assay with IL-1α (10 μM, LPS-stimulated PBL) it was 62%; with IL-1α (10 μM, PMA-stimulated PBL) it was 61%; with IL-1α (10 μM, zymosan-stimulated PBL), 82%. The inhibition at 10 µM in the assay on IL-6 (10 μM, LPS-stimulated PBL) came out at 67%; in the assay with IL-6 (10 μM, PMA-stimulated PBL), 46%; with IL-6 (10 μM, zymosan-stimulated PBL), 60%; in the assay on IL-8 (10 μM, LPS-stimulated PBL) it was 4%; in the assay on IL-8 (10 μM, PMA-stimulated PBL), 0%; in the assay on IL-8 (10 μM, zymosan-stimulated PBL) it was 24%. Further, the inhibition at 50 µM was found to be 100% with TNF-α (50 μM, LPS-stimulated PBL); 95% with TNF-α (50 μM, PMA-stimulated PBL); 94% in the assay on TNF-α (50 μM, zymosan-stimulated PBL); 91% with IL-1α (50 μM, LPS-stimulated PBL); 57% in the assay with IL-1α (50 μM, PMA-stimulated PBL); 100% in the assay with IL-1α (50 μM, zymosan-stimulated PBL). The inhibition at 50 µM with IL-6 (50 μM, LPS-stimulated PBL) was found to be 88%; in the assay on IL-6 (50 μM, PMA-stimulated PBL), 90%; with IL-6 (50 μM, zymosan-stimulated PBL) it was 100%; with IL-8 (50 μM, LPS-stimulated PBL), 38%; in the assay on IL-8 (50 μM, PMA-stimulated PBL), 53%; with IL-8 (50 μM, zymosan-stimulated PBL), 88%.
As to `CC[C@H]1OC(=O)[C@H](C)[C@@H](O[C@H]2C[C@@](C)(OC)[C@@H](OCCCN(CC)CC)[C@H](C)O2)[C@H](C)[C@@H](O[C@@H]2O[C@H](C)C[C@H](N(C)C)[C@H]2O)[C@](C)(O)C[C@@H](C)CN(C)[C@H](C)[C@H]2OC(=O)O[C@@]21C` [Example 95, 4″-O-(3-diethylamino-propyl)-azithromycin 11,12-cyclic carbonate], the “Percentage of inhibition of TNF-α production” value in the assay on TNF-α (10 μM, LPS-stimulated PBL) turned out to be 12%; with TNF-α (10 μM, PMA-stimulated PBL), 34%; with TNF-α (10 μM, zymosan-stimulated PBL), 47%; in the assay with TNF-α (50 μM, LPS-stimulated PBL), 30%; in the assay with TNF-α (50 μM, PMA-stimulated PBL) it was 50%; in the assay with TNF-α (50 μM, zymosan-stimulated PBL), 63%. Also, the “Percentage of inhibition of IL-1α production” value with IL-1α (10 μM, LPS-stimulated PBL) is given as 0%; in the assay on IL-1α (10 μM, PMA-stimulated PBL) it was 25%; in the assay with IL-1α (10 μM, zymosan-stimulated PBL) it was 38%; in the assay with IL-1α (50 μM, LPS-stimulated PBL), 0%; in the assay on IL-1α (50 μM, PMA-stimulated PBL) it was 75%; with IL-1α (50 μM, zymosan-stimulated PBL) it was 42%. Moreover, the “Percentage of inhibition of IL-6 production” value turned out to be 1% in the assay with IL-6 (10 μM, LPS-stimulated PBL); 17% with IL-6 (10 μM, PMA-stimulated PBL); 18% in the assay with IL-6 (10 μM, zymosan-stimulated PBL); 8% in the assay with IL-6 (50 μM, LPS-stimulated PBL); 56% in the assay on IL-6 (50 μM, PMA-stimulated PBL); 58% in the assay with IL-6 (50 μM, zymosan-stimulated PBL). In addition, the “Percentage of inhibition of IL-8 production” value in the assay on IL-8 (10 μM, LPS-stimulated PBL) came to 0%; in the assay with IL-8 (10 μM, PMA-stimulated PBL) it was 0%; with IL-8 (10 μM, zymosan-stimulated PBL), 5%; with IL-8 (50 μM, LPS-stimulated PBL), 16%; with IL-8 (50 μM, PMA-stimulated PBL), 21%; in the assay with IL-8 (50 μM, zymosan-stimulated PBL) it was 33%.
Turning to `CC[C@H]1OC(=O)[C@H](C)[C@@H](O[C@H]2C[C@@](C)(OC)[C@@H](OCCCN(CC)CC)[C@H](C)O2)[C@H](C)[C@@H](O[C@@H]2O[C@H](C)C[C@H](N(C)C)[C@H]2O)[C@](C)(O)C[C@@H](C)CN(C)[C@H](C)[C@@H](O)[C@]1(C)O` [Example 96, 4″-O-(3-diethylamino-propyl)-azithromycin], the inhibition at 10 µM in the assay on TNF-α (10 μM, LPS-stimulated PBL) amounted to 3%; in the assay on TNF-α (10 μM, PMA-stimulated PBL), 14%; in the assay with TNF-α (10 μM, zymosan-stimulated PBL), 21%; in the assay on IL-1α (10 μM, LPS-stimulated PBL), 0%; with IL-1α (10 μM, PMA-stimulated PBL) it was 32%; with IL-1α (10 μM, zymosan-stimulated PBL), 36%. In addition, the inhibition at 10 µM with IL-6 (10 μM, LPS-stimulated PBL) was found to be 0%; with IL-6 (10 μM, PMA-stimulated PBL), 27%; with IL-6 (10 μM, zymosan-stimulated PBL), 17%; in the assay on IL-8 (10 μM, LPS-stimulated PBL) it was 0%; in the assay on IL-8 (10 μM, PMA-stimulated PBL), 0%; in the assay on IL-8 (10 μM, zymosan-stimulated PBL), 6%. In addition, the inhibition at 50 µM in the assay on TNF-α (50 μM, LPS-stimulated PBL) is 13%; in the assay with TNF-α (50 μM, PMA-stimulated PBL), 48%; in the assay on TNF-α (50 μM, zymosan-stimulated PBL) it was 61%; in the assay with IL-1α (50 μM, LPS-stimulated PBL), 0%; in the assay on IL-1α (50 μM, PMA-stimulated PBL), 81%; in the assay with IL-1α (50 μM, zymosan-stimulated PBL) it was 88%. The inhibition at 50 µM in the assay with IL-6 (50 μM, LPS-stimulated PBL) is 3%; in the assay with IL-6 (50 μM, PMA-stimulated PBL), 64%; in the assay on IL-6 (50 μM, zymosan-stimulated PBL), 76%; in the assay on IL-8 (50 μM, LPS-stimulated PBL), 17%; in the assay with IL-8 (50 μM, PMA-stimulated PBL) it was 12%; in the assay on IL-8 (50 μM, zymosan-stimulated PBL), 40%.
Turning to `CCC1OC(=O)C(C)C(OC2CC(C)(OC)C(OCCCN3CCN(CCN(CC)CC)CC3)C(C)O2)C(C)C(OC2OC(C)CC(N(C)C)C2O)C(C)(O)CC(C)CN(C)C(C)C2OC(=O)OC12C` (stereo not drawn) [Example 97, 4″-O-{3-[4-(2-Diethylamino-ethyl)-piperazin-1-yl]-propyl}azithromycin 11,12-cyclic carbonate], the “Percentage of inhibition of TNF-α production” value in the assay with TNF-α (10 μM, LPS-stimulated PBL) came out at 0%; in the assay on TNF-α (10 μM, PMA-stimulated PBL) it was 31%; in the assay on TNF-α (10 μM, zymosan-stimulated PBL), 43%; in the assay with TNF-α (50 μM, LPS-stimulated PBL) it was 62%; in the assay on TNF-α (50 μM, PMA-stimulated PBL), 57%; in the assay on TNF-α (50 μM, zymosan-stimulated PBL), 69%. For the same compound, the “Percentage of inhibition of IL-1α production” value with IL-1α (10 μM, LPS-stimulated PBL) stood at 0%; with IL-1α (10 μM, PMA-stimulated PBL), 57%; in the assay on IL-1α (10 μM, zymosan-stimulated PBL), 49%; with IL-1α (50 μM, LPS-stimulated PBL), 0%; with IL-1α (50 μM, PMA-stimulated PBL), 79%; in the assay on IL-1α (50 μM, zymosan-stimulated PBL), 34%. In addition, the “Percentage of inhibition of IL-6 production” value in the assay on IL-6 (10 μM, LPS-stimulated PBL) is reported as 0%; in the assay with IL-6 (10 μM, PMA-stimulated PBL), 32%; with IL-6 (10 μM, zymosan-stimulated PBL) it was 9%; in the assay on IL-6 (50 μM, LPS-stimulated PBL), 14%; in the assay on IL-6 (50 μM, PMA-stimulated PBL) it was 51%; in the assay with IL-6 (50 μM, zymosan-stimulated PBL) it was 56%. Further, the “Percentage of inhibition of IL-8 production” value in the assay on IL-8 (10 μM, LPS-stimulated PBL) is 0%; with IL-8 (10 μM, PMA-stimulated PBL), 4%; in the assay with IL-8 (10 μM, zymosan-stimulated PBL), 10%; with IL-8 (50 μM, LPS-stimulated PBL) it was 23%; in the assay on IL-8 (50 μM, PMA-stimulated PBL) it was 29%; in the assay with IL-8 (50 μM, zymosan-stimulated PBL), 34%.
